Reference: ChEMBL document CHEMBL1145696, “Cytotoxic glycosides from Albizia julibrissin” (J Nat Prod, 1997)

Test system: KB
Assay: Cytotoxicity against human KB cells by MTT assay
Assay type: functional, cell-based

SMILES | IC50
C=C[C@](C)(CC/C=C(\C)C(=O)O[C@H]1[C@H](O)[C@@H](O)[C@H](O[C@](C)(C=C)CC/C=C(\C)C(=O)O[C@H]2C[C@]3(C(=O)O[C@@H]4O[C@H](CO)[C@@H](O)[C@H](O)[C@H]4O[C@@H]4O[C@@H](C)[C@H](O[C@@H]5O[C@@H](CO)[C@H](O)[C@H]5O)[C@@H](O[C@@H]5O[C@H](CO)[C@@H](O)[C@H](O)[C@H]5O)[C@H]4O)[C@H](O)C[C@]4(C)C(=CC[C@@H]5[C@@]6(C)CC[C@H](O[C@@H]7O[C@H](CO[C@@H]8O[C@H](C)[C@H](O)[C@H](O)[C@H]8O[C@@H]8OC[C@@H](O)[C@H](O)[C@H]8O)[C@@H](O)[C@H](O)[C@H]7NC(C)=O)C(C)(C)[C@@H]6CC[C@]54C)[C@@H]3CC2(C)C)O[C@@H]1C)O[C@@H]1O[C@H](C)[C@@H](O)[C@H](O)[C@H]1O [JULIBROSIDE III] | 900 nM
C=C[C@](C)(CC/C=C(\C)C(=O)O[C@H]1[C@H](O)[C@@H](O)[C@H](O[C@](C)(C=C)CC/C=C(\C)C(=O)O[C@H]2C[C@]3(C(=O)O[C@@H]4O[C@H](CO)[C@@H](O)[C@H](O)[C@H]4O[C@@H]4O[C@@H](C)[C@H](O[C@@H]5O[C@@H](CO)[C@H](O)[C@H]5O)[C@@H](O[C@@H]5O[C@H](CO)[C@@H](O)[C@H](O)[C@H]5O)[C@H]4O)[C@H](O)C[C@]4(C)C(=CC[C@@H]5[C@@]6(C)CC[C@H](O[C@@H]7O[C@H](CO[C@@H]8O[C@H](C)[C@H](O)[C@H](O)[C@H]8O[C@@H]8OC[C@@H](O)[C@H](O)[C@H]8O)[C@@H](O)[C@H](O)[C@H]7O)C(C)(C)[C@@H]6CC[C@]54C)[C@@H]3CC2(C)C)O[C@@H]1C)O[C@@H]1O[C@H](C)[C@@H](O)[C@H](O)[C@H]1O [JULIBROSIDE II] | > 10 µg/mL
C=C[C@](C)(CC/C=C(\C)C(=O)O[C@H]1[C@H](O)[C@@H](O)[C@H](O[C@](C)(C=C)CC/C=C(\C)C(=O)O[C@H]2C[C@]3(C(=O)O[C@@H]4O[C@H](CO)[C@@H](O)[C@H](O)[C@H]4O[C@@H]4O[C@@H](C)[C@H](O[C@@H]5O[C@@H](CO)[C@H](O)[C@H]5O)[C@@H](O[C@@H]5O[C@H](CO)[C@@H](O)[C@H](O)[C@H]5O)[C@H]4O)[C@H](O)C[C@]4(C)C(=CC[C@@H]5[C@@]6(C)CC[C@H](O[C@@H]7O[C@H](CO[C@@H]8O[C@H](C)[C@H](O)[C@H](O)[C@H]8O[C@@H]8OC[C@@H](O)[C@H](O)[C@H]8O)[C@@H](O)[C@H](O)[C@H]7O[C@@H]7O[C@H](CO)[C@@H](O)[C@H](O)[C@H]7O)C(C)(C)[C@@H]6CC[C@]54C)[C@@H]3CC2(C)C)O[C@@H]1C)O[C@@H]1O[C@H](C)[C@@H](O)[C@H](O)[C@H]1O [JULIBROSIDE I] | > 10 µg/mL
C[C@H]1O[C@@H](OC[C@H]2O[C@@H](O[C@H]3CC[C@]4(C)[C@H]5CC=C6[C@@H]7CC(C)(C)[C@@H]8C[C@]7(C(=O)O8)[C@H](O)C[C@@]6(C)[C@]5(C)CC[C@H]4C3(C)C)[C@H](O[C@@H]3O[C@H](CO)[C@@H](O)[C@H](O)[C@H]3O)[C@@H](O)[C@@H]2O)[C@H](O[C@@H]2OC[C@@H](O)[C@H](O)[C@H]2O)[C@@H](O)[C@H]1O [PORSAPOGENIN 5] | > 10 µg/mL
C[C@H]1O[C@@H](OC[C@H]2O[C@@H](O[C@H]3CC[C@]4(C)[C@H]5CC=C6[C@@H]7CC(C)(C)[C@@H]8C[C@]7(C(=O)O8)[C@H](O)C[C@@]6(C)[C@]5(C)CC[C@H]4C3(C)C)[C@H](O)[C@@H](O)[C@@H]2O)[C@H](O[C@@H]2OC[C@@H](O)[C@H](O)[C@H]2O)[C@@H](O)[C@H]1O [PORSAPOGENIN 6] | > 10 µg/mL
CC(=O)N[C@H]1[C@H](O[C@H]2CC[C@]3(C)[C@H]4CC=C5[C@@H]6CC(C)(C)[C@@H]7C[C@]6(C(=O)O7)[C@H](O)C[C@@]5(C)[C@]4(C)CC[C@H]3C2(C)C)O[C@H](CO[C@@H]2O[C@H](C)[C@H](O)[C@H](O)[C@H]2O[C@@H]2OC[C@@H](O)[C@H](O)[C@H]2O)[C@@H](O)[C@@H]1O [PORSAPOGENIN 7] | > 10 µg/mL
C=C[C@](C)(CC/C=C(\C)C(=O)O[C@H]1C[C@]2(C(=O)O[C@@H]3O[C@H](CO)[C@@H](O)[C@H](O)[C@H]3O[C@@H]3O[C@@H](C)[C@H](O[C@@H]4O[C@@H](CO)[C@H](O)[C@H]4O)[C@@H](O[C@@H]4O[C@H](CO)[C@@H](O)[C@H](O)[C@H]4O)[C@H]3O)[C@H](O)C[C@]3(C)C(=CC[C@@H]4[C@@]5(C)CC[C@H](O[C@@H]6O[C@H](CO[C@@H]7O[C@H](C)[C@H](O)[C@H](O)[C@H]7O[C@@H]7OC[C@@H](O)[C@H](O)[C@H]7O)[C@@H](O)[C@H](O)[C@H]6O[C@@H]6O[C@H](CO)[C@@H](O)[C@H](O)[C@H]6O)C(C)(C)[C@@H]5CC[C@]43C)[C@@H]2CC1(C)C)O[C@@H]1O[C@H](C)[C@@H](O)[C@H](O)[C@H]1O [PORSAPOGENIN 8] | 4500 nM
C=C[C@](C)(CC/C=C(\C)C(=O)O[C@H]1C[C@]2(C(=O)O[C@@H]3O[C@H](CO)[C@@H](O)[C@H](O)[C@H]3O[C@@H]3O[C@@H](C)[C@H](O[C@@H]4O[C@@H](CO)[C@H](O)[C@H]4O)[C@@H](O[C@@H]4O[C@H](CO)[C@@H](O)[C@H](O)[C@H]4O)[C@H]3O)[C@H](O)C[C@]3(C)C(=CC[C@@H]4[C@@]5(C)CC[C@H](O[C@@H]6O[C@H](CO[C@@H]7O[C@H](C)[C@H](O)[C@H](O)[C@H]7O[C@@H]7OC[C@@H](O)[C@H](O)[C@H]7O)[C@@H](O)[C@H](O)[C@H]6O)C(C)(C)[C@@H]5CC[C@]43C)[C@@H]2CC1(C)C)O[C@@H]1O[C@H](C)[C@@H](O)[C@H](O)[C@H]1O [PORSAPOGENIN 9] | 1600 nM
C[C@H]1O[C@@H](OC[C@H]2O[C@@H](O[C@H]3CC[C@]4(C)[C@H]5CC=C6[C@@H]7CC(C)(C)[C@@H](O)C[C@]7(C(=O)O)[C@H](O)C[C@@]6(C)[C@]5(C)CC[C@H]4C3(C)C)[C@H](O)[C@@H](O)[C@@H]2O)[C@H](O[C@@H]2OC[C@@H](O)[C@H](O)[C@H]2O)[C@@H](O)[C@H]1O [PROSAPOGENIN 1] | > 10 µg/mL
CC(=O)N[C@H]1[C@H](O[C@H]2CC[C@]3(C)[C@H]4CC=C5[C@@H]6CC(C)(C)[C@@H](O)C[C@]6(C(=O)O)[C@H](O)C[C@@]5(C)[C@]4(C)CC[C@H]3C2(C)C)O[C@H](CO[C@@H]2OC[C@H](O)[C@H](O)[C@H]2O[C@@H]2OC[C@@H](O)[C@H](O)[C@H]2O)[C@@H](O)[C@@H]1O [PROSAPOGENIN 2] | > 10 µg/mL
CC1(C)C[C@H]2C3=CC[C@@H]4[C@@]5(C)CC[C@H](O[C@@H]6O[C@H](CO[C@@H]7OC[C@H](O)[C@H](O)[C@H]7O[C@@H]7OC[C@@H](O)[C@H](O)[C@H]7O)[C@@H](O)[C@H](O)[C@H]6O)C(C)(C)[C@@H]5CC[C@@]4(C)[C@]3(C)C[C@@H](O)[C@@]23C[C@@H]1OC3=O [PROSAPOGENIN 3] | > 10 µg/mL
CC(=O)N[C@H]1[C@H](O[C@H]2CC[C@]3(C)[C@H]4CC=C5[C@@H]6CC(C)(C)[C@@H]7C[C@]6(C(=O)O7)[C@H](O)C[C@@]5(C)[C@]4(C)CC[C@H]3C2(C)C)O[C@H](CO[C@@H]2OC[C@H](O)[C@H](O)[C@H]2O[C@@H]2OC[C@@H](O)[C@H](O)[C@H]2O)[C@@H](O)[C@@H]1O [PROSAPOGENIN 4] | > 10 µg/mL
C=C[C@](C)(CC/C=C(\CO)C(=O)O[C@H]1C[C@]2(C(=O)O[C@@H]3O[C@H](CO)[C@@H](O)[C@H](O)[C@H]3O[C@@H]3O[C@@H](C)[C@H](O[C@@H]4O[C@@H](CO)[C@H](O)[C@H]4O)[C@@H](O[C@@H]4O[C@H](CO)[C@@H](O)[C@H](O)[C@H]4O)[C@H]3O)[C@H](O)C[C@]3(C)C(=CC[C@@H]4[C@@]5(C)CC[C@H](O[C@@H]6O[C@H](CO[C@@H]7O[C@H](C)[C@H](O)[C@H](O)[C@H]7O[C@@H]7OC[C@@H](O)[C@H](O)[C@H]7O)[C@@H](O)[C@H](O)[C@H]6O)C(C)(C)[C@@H]5CC[C@]43C)[C@@H]2CC1(C)C)O[C@@H]1O[C@H](C)[C@@H](O)[C@H](O)[C@H]1O [PROSAPOGENIN 10] | 2000 nM
C=C[C@](C)(CC/C=C(\C)C(=O)O[C@H]1C[C@]2(C(=O)O[C@@H]3O[C@H](CO)[C@@H](O)[C@H](O)[C@H]3O[C@@H]3O[C@@H](C)[C@H](O[C@@H]4O[C@@H](CO)[C@H](O)[C@H]4O)[C@@H](O[C@@H]4O[C@H](CO)[C@@H](O)[C@H](O)[C@H]4O)[C@H]3O)CC[C@]3(C)C(=CC[C@@H]4[C@@]5(C)CC[C@H](O[C@@H]6O[C@H](CO[C@@H]7O[C@H](C)[C@H](O)[C@H](O)[C@H]7O[C@@H]7OC[C@@H](O)[C@H](O)[C@H]7O)[C@@H](O)[C@H](O)[C@H]6O)C(C)(C)[C@@H]5CC[C@]43C)[C@@H]2CC1(C)C)O[C@@H]1O[C@H](C)[C@@H](O)[C@H](O)[C@H]1O [PROSAPOGENIN 11] | 1600 nM
C=C[C@](C)(CC/C=C(\C)C(=O)O[C@H]1C[C@]2(C(=O)O[C@@H]3O[C@H](CO)[C@@H](O)[C@H](O)[C@H]3O[C@@H]3O[C@@H](C)[C@H](O[C@@H]4O[C@@H](CO)[C@H](O)[C@H]4O)[C@@H](O[C@@H]4O[C@H](CO)[C@@H](O)[C@H](O)[C@H]4O)[C@H]3O)CC[C@]3(C)C(=CC[C@@H]4[C@@]5(C)CC[C@H](O[C@@H]6O[C@H](CO[C@@H]7O[C@H](C)[C@H](O)[C@H](O)[C@H]7O[C@@H]7OC[C@@H](O)[C@H](O)[C@H]7O)[C@@H](O)[C@H](O)[C@H]6OC6O[C@H](CO)[C@@H](O)[C@H](O)[C@H]6O)C(C)(C)[C@@H]5CC[C@]43C)[C@@H]2CC1(C)C)O[C@@H]1O[C@H](C)[C@@H](O)[C@H](O)[C@H]1O (stereo not given in full) [PROSAPOGENIN 12] | > 10 µg/mL
